Laboratory results taken from patent US20220202882A1, “EFFECT OF COMBINATION OF BIFIDOBACTERIUM AND BERBERINE ON PRE-DIABETES AND TYPE 2 DIABETES” (The Fourth Military Medical University, priority 2018, published 2022).
Structures can show the parent of a compound that is named as a salt.

Test system: pre-diabetic and type 2 diabetes mellitus patients
Assay: Clinical trial: fasting plasma glucose (FPG)
Format: in vivo, human
Settings: for Effect on fasting plasma glucose level (in words) / Post-treatment FPG - pre-treatment FPG, mean value: 16 weeks of treatment; for Effect on fasting plasma glucose level (in words): Kruskal-Wilcox test; for Post-treatment FPG - pre-treatment FPG, mean value / Post-treatment FPG, mean value / Pre-treatment FPG, mean value: FAS; for Post-treatment FPG, mean value: after 16 weeks of treatment; for Pre-treatment FPG, mean value: baseline before treatment
Method: From June 2015 to October 2018, a double-blind, randomized, and parallel-controlled trial, studying the effects of the combined use of Bifidobacterium and berberine on pre-diabetic and type 2 diabetes mellitus patients, was conducted in 10 research centers in Xi'an, Yan'an and Shangluo of Shaanxi province, etc., including the First Affiliated Hospital of the Fourth Military Medical University. 3) Diagnosed with impaired glucose tolerance or type 2 diabetes mellitus (5.6≤fasting plasma glucose (FPG)<8.0 mmol/L at V1 stage; 6.1≤fasting plasma glucose (FPG)<8.0<mmol/L or 7.8≤2-hour postprandial venous blood glucose (2 h-PPG)<17 mmol/L at V2 stage, please see V1 and V2 in Table 1 below); The trial included an enrollment stage of 2 weeks and a treatment stage of 16 weeks. After passing the first visit 1 (see V1 in Table 1), the subjects entered the enrollment stage, i.e., 2 weeks of lifestyle intervention, followed by a re-screening (see V2 in Table 1). The subjects were subjected to a 16-week course of treatment after passing the screening. See Table 1 for the detailed screening parameters. After the enrollment stage, the baseline data of the 300 successfully enrolled subjects were collected. Meanwhile, the subjects started to receive lifestyle guidance, and were randomly divided into four groups for 16 weeks of treatments. 1) Bifidobacterium group: the subjects were administered with Bifidobacterium capsules (Livzon Pharmaceutical Group Inc., batch no.: 20141013), 0.35 g/capsule, each capsule containing 50,000,000 viable bacteria (Bifidobacterium adolescentis DM8504), 2 capsules/time, 2 times/day, plus berberine placebo tablets (Northeast Pharma Group Shenyang First Pharma Co., Ltd., Lot no.: 20150101, containing 80.2% microcrystalline cellulose, 9.4% pregelatinized starch, 6.4% sodium carboxymethyl starch, 1% magnesium stearate, and 3% copovidone), 0.1 g/tablet, 5 tablets/time, 2 times/day. 2) Berberine group: the subjects were administered with berberine tablets (Northeast Pharma Group Shenyang First Pharma Co., Ltd., Lot no.: 130917, each tablet weighted 0.165 g and contained 0.1 g active berberine ingredient (berberine hydrochloride), with the same excipients as the placebo tablets), 5 tablets/time, 2 times/day, plus Bifidobacterium placebo capsules (Livzon Pharmaceutical Group Inc., Lot no.: 141001, specifically containing 0.348 g spray-dried lactose, and 0.002 g magnesium stearate), 0.35 g/capsule, 2 capsules/time, 2 times/day. 3) Combination Group: the subjects were administered with Bifidobacterium capsules, 0.35 g/capsule, each capsule containing 50,000,000 viable bacteria (B. adolescentis DM8504), 2 capsules/time, 2 times/day, plus berberine tablets, 0.1 g/tablet, each tablet containing 0.1 g active berberine ingredient (berberine hydrochloride), 5 tablets/time, 2 times/day. 4) Control group: the subjects were administered with Bifidobacteria placebo capsules, 0.35 g/capsule, 2 capsules/time, 2 times/day, plus berberine placebo tablets, 0.1 g/tablet, 5 tablets/time, 2 times/day. Bifidobacterium capsules were taken after meals and berberine tablets were taken before meals. After the sample testing was finished, 1) Chi-Squared test and t-test were used to evaluate the intergroup balance of the baseline data including the demographic characteristics and pre-treatment indicators, wherein the baseline data referred to those collected at the second visit, before the formal administration, the data collected at the first visit on the enrollment stage were used instead if the data at the second visit was lacking; 2) two-way disordered CM-CH11, Kruska-Wilcox test, etc. were used for analysis and intergroup comparison of pre- and post-treatment indicators such as fasting plasma glucose (FPG), HbA1c, plasma glucose at 2 hours post OGTT (2-h PPG), blood pressure, blood lipids, body weight and BMI; 3) adverse events and hypoglycemia events were described in terms of the type, frequency and relevance with the drugs, for safety evaluation. […]

Row | Compound | Effect on fasting plasma glucose level (in words) | Post-treatment FPG - pre-treatment FPG, mean value | Post-treatment FPG, mean value | Pre-treatment FPG, mean value
1 | Bifidobacterium | no evident effect | 0.0282 mmol/L | 6.4300 mmol/L | 6.4000 mmol/L
2 | COc1ccc2cc3[n+](cc2c1OC)CCc1cc2c(cc1-3)OCO2 [Berberine, berberine hydrochloride] | lowered the fasting plasma glucose level significantly | -0.2450 mmol/L | 6.1300 mmol/L | 6.4700 mmol/L
